Assay results from patent US6982348B2, “Aminoethanol derivatives” (Takeda Pharmaceutical Company Limited, priority 2001, dated 2006).
Where a name gives a salt, the structure may show the parent alone.

SMILES	melting point
O=C(N[C@H](Cc1ccc(C(F)(F)F)cc1)[C@@H](O)c1ccc(F)cc1)c1cc(C(F)(F)F)cc(C(F)(F)F)c1 (racemic) [Example 86, N-((1RS,2SR)-2-(4-fluorophenyl)-2-hydroxy-1-((4-(trifluoromethyl)phenyl)methyl)ethyl)-3,5-bis(trifluoromethyl)benzamide]	150 to 151 °C
O=C(N[C@H](Cc1ccc(C(F)(F)F)cc1)[C@@H](O)c1ccc(F)cc1)c1ccc(/C=C\c2ccc(Cl)cc2)cc1 (racemic) [Example 89, 4-[(Z)-2-(4-chlorophenyl)ethenyl]-N-[(1RS,2SR)-2-(4-fluorophenyl)-2-hydroxy-1-[4-(trifluoromethyl)benzyl]ethyl]benzenecarboxamide]	193 to 194 °C
CC(C)(C)COc1cccc(C[C@@H](NC(=O)c2cccc3c2C=CCCC3)[C@@H](O)c2cccc(Cl)c2)c1 (racemic) [Example 368, N-[(1RS,2SR)-1-[3-(neopentyloxy)benzyl]-2-(3-chlorophenyl)-2-hydroxyethyl]-6,7-dihydro-5H-benzo[a]cycloheptene-1-carboxamide]	128 to 129 °C
CC(C)C(F)(F)Cc1ccc(C[C@@H](NC(=O)c2cccc3c(Cl)cccc23)[C@@H](O)c2cccc(Cl)c2)cc1 (racemic) [Example 354, 5-chloro-N-[(1RS,2SR)-2-(3-chlorophenyl)-1-[4-(2,2-difluoro-3-methylbutyl)benzyl]-2-hydroxyethyl]naphthalene-1-carboxamide]	170 to 171 °C
COc1ccc([C@H](O)[C@@H](Cc2ccc(C(F)(F)F)cc2)NC(=O)c2ccc(F)c3ccccc23)cc1 (racemic) [Example 192, 4-fluoro-N-((1RS,2SR)-2-hydroxy-2-(4-methoxyphenyl)-1-((4-(trifluoromethyl)phenyl)methyl)ethyl)-1-naphthalenecarboxamide]	184 to 185 °C
O=C(N[C@H](Cc1ccc(C(F)(F)F)cc1)[C@@H](O)c1ccc(Cl)cc1)c1ccc(F)c2ccccc12 (racemic) [Example 194, N-[(1RS,2SR)-2-(4-chlorophenyl)-2-hydroxy-1-[4-(trifluoromethyl)benzyl]ethyl]-4-fluoronaphthalene-1-carboxamide]	203 to 204 °C
O=C(N[C@H](Cc1ccc(C(F)(F)F)cc1)[C@@H](O)c1ccc(F)cc1)c1cccc(Oc2ccccc2)c1 (racemic) [Example 107, N-((1RS,2SR)-2-(4-fluorophenyl)-2-hydroxy-1-((4-(trifluoromethyl)phenyl)methyl)ethyl)-3-phenoxybenzamide]	144 to 145 °C
O=C(N[C@H](Cc1ccc(C(F)(F)F)cc1)[C@@H](O)c1ccc(F)cc1)c1ccc(C(F)(F)F)cc1 (racemic) [Example 81, N-((1RS,2SR)-2-(4-fluorophenyl)-2-hydroxy-1-((4-(trifluoromethyl)phenyl)methyl)ethyl)-4-(trifluoromethyl)benzamide]	228 to 229 °C
O=C(N[C@H](Cc1cccc(OC(F)(F)C(F)F)c1)[C@@H](O)c1cccc(F)c1)c1cccc2c1C=CCCC2 (racemic) [Example 235, N-((1RS,2SR)-2-(3-fluorophenyl)-2-hydroxy-1-[3-(1,1,2,2-tetrafluoroethoxy)benzyl]ethyl)-6,7-dihydro-5H-benzo[a][7]annulene-1-carboxamide]	150 to 155 °C
O=C(O)CCC(=O)O[C@H](c1ccc(F)cc1)[C@H](Cc1ccc(C(F)(F)F)cc1)NC(=O)c1cccc2c(Cl)cccc12 (racemic) (as salt: succinate) [Example 394, (1RS,2SR)-2-[(5-chloro-1-naphthoyl)amino]-1-(4-fluorophenyl)-3-[4-(trifluoromethyl)phenyl]propyl hydrogen succinate]	228 to 229 °C
CC(C)(C)OC(=O)N[C@H](Cc1ccc(CC(F)(F)C(F)(F)F)cc1)[C@@H](O)c1cccc(Cl)c1 (racemic) [Example 372, tert-butyl (1RS,2SR)-2-(3-chlorophenyl)-2-hydroxy-1-[4-(2,2,3,3,3-pentafluoropropyl)benzyl]ethylcarbamate]	156 to 157 °C
O=C(NC(Cc1ccc(C(F)(F)F)cc1)C(O)c1ccc(F)cc1)c1ccc2ccccc2c1 (racemic) [Example 14, N-[2-(4-fluorophenyl)-2-hydroxy-1-[[4-(trifluoromethyl)phenyl]methyl]ethyl]-2-naphthalenecarboxamide]	148 to 150 °C
CC(C)(C)Cc1ccc(C[C@@H](NC(=O)c2ccc(F)c3ccccc23)[C@@H](O)c2cccc(Cl)c2)cc1 (racemic) [Example 345, 4-fluoro-N-[(1RS,2SR)-2-(3-chlorophenyl)-2-hydroxy-1-(4-neopentylbenzyl)ethyl]naphthalene-1-carboxamide]	150 to 151 °C
Cc1ccc(C[C@@H](NC(=O)c2cccc3c2C=CCCC3)[C@@H](O)c2ccc(F)cc2)cc1OC(F)(F)C(F)F (racemic) [Example 234, N-((1RS,2SR)-2-(4-fluorophenyl)-2-hydroxy-1-((4-methyl-3-((1,1,2,2-tetrafluoroethyl)oxy)phenyl)methyl)ethyl)-6,7-dihydro-5H-benzo[a]cycloheptene-1-carboxamide]	168 to 169 °C
O=C(N[C@H](Cc1ccc(C(F)(F)F)cc1)[C@@H](O)c1ccc(F)cc1)c1c(CSc2ccccc2)ccc2ccccc12 (racemic) [Example 97, N-[(1RS,2SR)-2-(4-fluorophenyl)-2-hydroxy-1-[4-(trifluoromethyl)benzyl]ethyl]-2-[(phenylthio)methyl]naphthalene-1-carboxamide]	102 to 104 °C
O=C(N[C@H](Cc1cccc(OC(F)(F)C(F)F)c1)[C@@H](O)c1ccc(Oc2ccccn2)cc1)c1cccc2c1C=CCCC2 (racemic) [Example 258, N-{(1RS,2SR)-2-hydroxy-2-[4-(pyridin-2-yloxy)phenyl]-1-[3-(1,1,2,2-tetrafluoroethoxy)benzyl]ethyl}-6,7-dihydro-5H-benzo[a][7]annulene-1-carboxamide]	160 to 161 °C
O=C(NC(Cc1ccc(C(F)(F)F)cc1)C(O)c1ccc(F)cc1)c1ccccc1-c1ccccc1 (racemic) [Example 10, N-[2-(4-fluorophenyl)-2-hydroxy-1-[[4-(trifluoromethyl)phenyl]methyl]ethyl]-2-phenylbenzamide]	133 to 134 °C
O=C(N[C@H](Cc1cccc(C(F)(F)F)c1)[C@@H](O)c1ccc(F)cc1)c1ccc(F)c2ccccc12 (racemic) [Example 137, 4-fluoro-N-((1RS,2SR)-2-(4-fluorophenyl)-2-hydroxy-1-((3-(trifluoromethyl)phenyl)methyl)ethyl)-1-naphthalenecarboxamide]	193 to 194 °C
O=C(N[C@H](Cc1ccc(C(F)(F)F)cc1)[C@@H](O)c1cccc2ccccc12)c1ccc(F)c2ccccc12 (racemic) [Example 186, 4-fluoro-N-((1RS,2SR)-2-hydroxy-2-(1-naphthalenyl)-1-((4-(trifluoromethyl)phenyl)methyl)ethyl)-1-naphthalenecarboxamide]	195 to 196 °C
CCCCc1ccc(C(=O)NC(Cc2ccc(C(F)(F)F)cc2)C(O)c2ccc(F)cc2)cc1 (racemic) [Example 13, 4-butyl-N-[2-(4-fluorophenyl)-2-hydroxy-1-[[4-(trifluoromethyl)phenyl]methyl]ethyl]benzamide]	138 to 158 °C
CC(C)(C)C(F)(F)c1ccc(C[C@@H](NC(=O)c2cccc3c(Cl)cccc23)[C@@H](O)c2cccc(Cl)c2)cc1 (racemic) [Example 381, 5-chloro-N-{(1RS,2SR)-2-(3-chlorophenyl)-1-[4-(1,1-difluoro-2,2-dimethylpropyl)benzyl]-2-hydroxyethyl}-1-naphthamide]	99 to 101 °C
CC(C)(C)OC(=O)N[C@H](Cc1cnc(C(F)(F)F)s1)[C@@H](O)c1ccc(F)cc1 (racemic) [Example 168, tert-butyl N-[(1RS,2SR)-2-(4-fluorophenyl)-2-hydroxy-1-[[2-(trifluoromethyl)-1,3-thiazol-5-yl]methyl]ethyl]carbamate]	137 to 138 °C
O=C(N[C@H](Cc1ccc(F)cc1)[C@@H](O)c1ccc(F)cc1)c1cccc2ccccc12 (racemic) [Example 144, N-((1RS,2SR)-2-(4-fluorophenyl)-1-((4-fluorophenyl)methyl)-2-hydroxyethyl)-1-naphthalenecarboxamide]	199 to 200 °C
O=C(CCc1ccccc1)N[C@H](Cc1ccc(C(F)(F)F)cc1)[C@@H](O)c1ccc(Cl)nc1 (racemic) [Example 203, N-((1RS,2SR)-2-(6-chloro-3-pyridyl)-2-hydroxy-1-((4-(trifluoromethyl)phenyl)methyl)ethyl)-3-phenylpropanamide]	149 to 150 °C
CC(C)(C)OC(=O)N[C@H](Cc1cccc(OC(F)(F)C(F)F)c1)[C@@H](O)c1ccnc(F)c1 (racemic) [Example 219, 1,1-dimethylethyl(1RS,2SR)-2-(2-fluoropyridin-4-yl)-2-hydroxy-1-((3-(1,1,2,2-tetrafluoroethoxy)phenyl)methyl)ethylcarbamate]	143 to 144 °C
O=C(N[C@H](Cc1cccc(OC(F)(F)C(F)F)c1)[C@@H](O)c1ccc(-c2ccccc2)cc1)c1cccc2c1C=CCCC2 (racemic) [Example 291, N-[(1RS,2SR)-2-(1,1′-biphenyl-4-yl)-2-hydroxy-1-[3-(1,1,2,2-tetrafluoroethoxy)benzyl]ethyl]-6,7-dihydro-5H-benzo[a]cycloheptene-1-carboxamide]	122 to 123 °C
O=C(N[C@H](Cc1ccc(C(F)(F)F)cc1)[C@@H](O)c1ccc(F)cc1)c1ccccc1 (racemic) [Example 68, N-[(1RS,2SR)-2-(4-fluorophenyl)-2-hydroxy-1-[4-(trifluoromethyl)benzyl]ethyl]benzamide]	193 to 194 °C
CC(C)(C)OC(=O)N[C@H](Cc1cccc(S(=O)(=O)C(F)(F)F)c1)[C@@H](O)c1ccc(F)cc1 (racemic) [Example 279, tert-butyl (1RS,2SR)-2-(4-fluorophenyl)-2-hydroxy-1-{3-[(trifluoromethyl)sulfonyl]benzyl}ethylcarbamate]	152 to 153 °C
